Measurements taken from patent US20230181678A1, “NOVEL ANTIBACTERIAL PEPTIDE OR PEPTIDE ANALOG AND USE THEREOF” (CAMP THERAPEUTICS INC., priority 2020, published 2023).

Key:
Assay type in all cases: cell-based
[1] = tested on: human red blood cells (hRBC); test: Hemolysis assay; conditions: hRBCs, 37° C., 4 hours
Procedure: To identify toxicity of the peptides, human red blood cell (hRBC) hemolytic activity assay (hemolysis assay) was performed.
Specifically, percent hemolysis of human red blood cells (hRBC) was determined by comparing the cells incubated in 100% deionized water (DW) as a positive control and peptide-free PBS as a negative control. hRBCs were washed 3 times with PBS using centrifugation at 500 g for 5 min, and 5% (v/v) hematocrit was suspended in PBS buffer (Hyclone). The peptide was diluted using 2-fold serial dilution with PBS, and hRBCs were added at 2.5×10^8 cells to each well. The sample was incubated at 37° C. for 4 hours. After centrifugation at 1400 rpm for 5 minutes, 180 μL of the supernatant was transferred to a transparent flat-bottom 96-well plate. An amount of hemoglobin released by the peptide was determined by measuring absorbance at 405 nm using an EPOCH2 microplate reader (BioTek, Winooski, USA).
Hemolytic activity (%)=(absorbance of sample−absorbance of PBS)/(absorbance of 100% DW−A405 of PBS)×100

[2] = tested on: inner membrane of E. coli ATCC 25922; test: Enzyme assay, inner membrane leakage (β-galactosidase release, ONPG); conditions: 1.5 mM ONPG
Procedure: (§1) It was observed, through an enzyme assay, whether the sensitizing peptide destroyed the outer and inner membranes of Gram-negative bacteria. In the presence of the sensitizing peptide, it was observed whether in a case where 1.5 mM ONPG was used together therewith, β-galactosidase was released from E. coli ATCC 25922 for the inner membrane, and whether in a case where 200 μM CENTA was used together therewith, β-lactamase was released from E. coli NDM-1 for the outer membrane.
To determine leakage of the inner membrane, release of the cytoplasmic enzyme β-galactosidase was evaluated. The bacteria were diluted to OD600=1 and 1.5 mM ONPG (O-nitrophenyl-β-D-galactopyranoside) was added. Absorbance of a product of enzyme reaction was measured at 420 nm. The other procedures were carried out in the same manner as in the experiment for outer membrane destruction.

[3] = tested on: outer membrane of E. coli NDM-1; test: Enzyme assay, outer membrane leakage (β-lactamase release, CENTA); conditions: peptide 0.63 or 1.30 uM, 37° C., 1 h; 200 μM CENTA
Procedure: as §1
Specifically, to determine leakage of the outer membrane, activity of the β-lactamase released from the outer membrane was evaluated. New Delhi metallo-β-lactamase-1 (NDm-1)-producing E. coli cells were washed three times with DPBS and suspended in the same buffer. The cells were diluted to an OD600 of 0.2 and treated with the peptide at a concentration of 0.63 or 1.30 uM at 37° C. for 1 h. After centrifugation, the supernatant was incubated with 200 μM CENTATM β-lactamase substrate at 37° C. for 1 hour. An optical density was obtained by measuring absorbance of a product of enzyme reaction at 405 nm using a microplate reader (Molecular Devices Co., Menlo Park, Calif.).
The results are illustrated in FIGS. 12A and 12B. The y-axis is absorbance measured at 405 nm, and higher absorbance is observed as a higher amount of β-lactamase is released due to destruction of the membrane.

CC[C@H](C)[C@H](NC(=O)CN)C(=O)NCC(=O)N[C@@H](C)C(=O)N[C@H](C(=O)N[C@@H](CC(C)C)C(=O)N[C@@H](CCCCN)C(=O)N[C@H](C(=O)N[C@@H](CC(C)C)C(=O)N[C@H](C(=O)N[C@H](C(=O)NCC(=O)N[C@@H](CC(C)C)C(=O)N1CCC[C@H]1C(=O)N[C@@H](C)C(=O)N[C@@H](CC(C)C)C(=O)N[C@H](C(=O)N[C@@H](CO)C(=O)N[C@@H](Cc1c[nH]c2ccccc12)C(=O)N[C@H](C(=O)N[C@@H](CCCCN)C(=O)N[C@@H](CCCNC(=N)N)C(=O)N[C@@H](CCCCN)C(=O)N[C@@H](CCCNC(=N)N)C(=O)N[C@@H](CCC(N)=O)C(=O)N[C@@H](CCC(N)=O)C(N)=O)[C@@H](C)CC)[C@@H](C)CC)[C@@H](C)O)[C@@H](C)O)C(C)C)C(C)C [melittin, reference compound]
hemolytic activity [1]: exhibited hemolysis of hRBCs starting from low concentrations | destruction of inner membrane (β-galactosidase release) [2]: destroyed both the inner and outer membranes of bacteria | destruction of outer membrane (β-lactamase release) [3]: destroyed both the inner and outer membranes of bacteria
